Molecular target: T1, androgen receptor (Homo sapiens, UniProt P10275)
T1 sequence (P10275 1-920 Q868H): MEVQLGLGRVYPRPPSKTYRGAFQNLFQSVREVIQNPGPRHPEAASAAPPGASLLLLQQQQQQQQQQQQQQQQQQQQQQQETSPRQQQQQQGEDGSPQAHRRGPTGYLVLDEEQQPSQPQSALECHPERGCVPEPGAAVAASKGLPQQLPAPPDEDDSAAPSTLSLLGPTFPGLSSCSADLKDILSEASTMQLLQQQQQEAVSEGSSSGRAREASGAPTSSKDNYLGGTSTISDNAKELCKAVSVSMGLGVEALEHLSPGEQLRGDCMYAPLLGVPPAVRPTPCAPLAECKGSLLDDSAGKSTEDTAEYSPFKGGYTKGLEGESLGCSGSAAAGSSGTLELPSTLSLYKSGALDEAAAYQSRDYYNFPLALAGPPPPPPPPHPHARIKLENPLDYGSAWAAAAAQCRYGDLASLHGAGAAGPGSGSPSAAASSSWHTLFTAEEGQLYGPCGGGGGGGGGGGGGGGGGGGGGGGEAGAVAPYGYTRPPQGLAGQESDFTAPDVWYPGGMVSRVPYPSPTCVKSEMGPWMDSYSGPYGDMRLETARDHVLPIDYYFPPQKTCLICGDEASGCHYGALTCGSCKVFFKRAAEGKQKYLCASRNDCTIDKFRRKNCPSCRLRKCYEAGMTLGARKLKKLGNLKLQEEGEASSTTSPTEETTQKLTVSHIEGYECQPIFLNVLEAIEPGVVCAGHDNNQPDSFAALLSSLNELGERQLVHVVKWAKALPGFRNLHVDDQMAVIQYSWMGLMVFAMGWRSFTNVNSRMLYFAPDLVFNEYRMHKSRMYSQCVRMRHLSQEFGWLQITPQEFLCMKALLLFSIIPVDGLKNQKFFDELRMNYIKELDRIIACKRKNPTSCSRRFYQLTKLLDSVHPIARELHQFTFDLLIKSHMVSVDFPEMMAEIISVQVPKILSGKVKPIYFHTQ
Test: AR Antagonist Cell Assay (MMTV-luciferase reporter, DHT-stimulated)
Assay type: cell-based
Details: MDA-MB453-MMTV clone 54-19 cells; antagonism of 100 pM DHT, 17 hr, luciferase readout
How it was run: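 MDA-MB453 cells stably carrying MMTV-ARE-firefly luciferase, in 1% charcoal-treated serum, preincubated 30 min with compound (10 uM or 1 uM) then stimulated with 100 pM DHT for 17 h at 37° C. Luminescence read; result as % inhibition of DHT fold induction.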

| SMILES | IC50 |
| --- | --- |
| Cc1ccc(F)c(CNS(=O)(=O)c2ccc(Cc3ccc4oc(=O)cc(C(F)(F)F)c4c3)cc2)c1Cl [Example 200, N-(2-Chloro-6-fluoro-3-methylbenzyl)-4-(2-oxo-4-trifluoromethyl-2H-chromen-6-ylmethyl)benzenesulfonamide] | 6.91 µM |
| O=c1cc(C(F)(F)F)c2cc(Cc3ccc(S(=O)(=O)NCc4c(F)ccc(F)c4Cl)cc3)ccc2o1 [Example 202, N-(2-Chloro-3,6-difluorobenzyl)-4-(2-oxo-4-trifluoromethyl-2H-chromen-6-ylmethyl)benzenesulfonamide] | 4.42 µM |
| O=c1cc(C(F)(F)F)c2cc(Cc3ccc(S(=O)(=O)NCc4cc(C(F)(F)F)ccc4F)cc3)ccc2o1 [Example 204, N-(2-Fluoro-5-trifluoromethylbenzyl)-4-(2-oxo-4-trifluoromethyl-2H-chromen-6-ylmethyl)benzene-sulfonamide] | > 10 µM |

Other lines, results leading:

| IC50 | SMILES |
| --- | --- |
| 4.04 µM | O=c1cc(C(F)(F)F)c2cc(Cc3ccc(S(=O)(=O)NCc4ccccc4C(F)(F)F)cc3)ccc2o1 [Example 201, 4-(2-Oxo-4-trifluoromethyl-2H-chromen-6-ylmethyl)-N-(2-trifluoromethylbenzyl)-benzenesulfonamide] |
| 2.19 µM | O=c1cc(C(F)(F)F)c2cc(Cc3ccc(S(=O)(=O)NCc4ccccc4Br)cc3)ccc2o1 [Example 203, N-(2-Bromobenzyl)-4-(2-oxo-4-trifluoromethyl-2H-chromen-6-ylmethyl)benzenesulfonamide] |
| 3.43 µM | CCOC(=O)CC(NS(=O)(=O)c1ccc(Cc2ccc3oc(=O)cc(C(F)(F)F)c3c2)cc1)c1ccccc1 (stereo not shown) [Example 205, 3-[4-(2-Oxo-4-trifluoromethyl-2H-chromen-6-ylmethyl)-benzenesulfonylamino]-3-phenylpropionic acid ethyl ester] |
| 5.74 µM | O=c1cc(C(F)(F)F)c2cc(Cc3ccc(S(=O)(=O)NCC(c4ccccc4)c4ccccc4)cc3)ccc2o1 [Example 206, N-(2,2-Diphenylethyl)-4-(2-oxo-4-trifluoromethyl-2H-chromen-6-ylmethyl)benzene-sulfonamide] |

Source: patent publication US7098340B2, “Benzyl sulfonamide derivatives” (Warner Lambert Company LLC, priority 2003, dated 2006)
